From US10934272B2, “Pyridyl derivatives as bromodomain inhibitors” (GlaxoSmithKline Intellectual Property (No. 2) Limited, priority 2016, dated 2021)

How the values were obtained:
[1] = biological target: T1, BRD4 BD2 (Homo sapiens, UniProt O60885, Y97A); assay: TR-FRET competition assay, BRD4 BD2 (single mutant tandem bromodomain protein); type: binding; details: for IC50: read-out: pIC50 in the BRD4 BD2 assay (converted); for selectivity for BRD4 BD2 over BRD4 BD1: Selectivity = BRD4 BD2 pIC50 - BRD4 BD1 pIC50, in at least one of the TR-FRET assays; for fold selective for BRD4 BD2 over BRD4 BD1: from the pIC50 difference BRD4 BD2 - BRD4 BD1
T1 construct: BRD4 (1-477) (Y97A) and (Y390A); made in house; host or cells: E. coli (pET15b vector)
Method: Time Resolved Fluorescence Resonance Energy Transfer (TR-FRET) Assay
Bromodomain binding was assessed utilising a time resolved fluorescent resonance energy transfer (TR-FRET) competition assay. To enable this approach a known, high affinity, pan-BET interacting small molecule was labelled with Alexa Fluor® 647, which is a far-red-fluorescent dye (Reference Compound X). Reference Compound X acts as a reporter of bromodomain binding and is the acceptor fluorophore component of the TR-FRET pair. Europium chelate, conjugated to an anti-6*His antibody, was utilised as the donor fluorophore in the TR-FRET pair. […] A TR-FRET signal is generated when the donor and acceptor fluorophores are in close proximity, between 20-80 Å, which is enabled in this assay by binding of Reference Compound X to the bromodomain protein.
If the acceptor fluorophore is in close proximity then energy transfer can occur, which leads to emission of Alexa Fluor® 647 at λ665 nm. In the presence of competitor compound, Reference Compound X can be displaced from binding to the bromodomain. If displacement occurs, the acceptor fluorophore is no longer in proximity to the donor fluorophore, which prevents fluorescent energy transfer and, subsequently, a loss of Alexa Fluor® 647 emission at λ665 nm.
The competition of the compounds of formula (I) with Reference Compound X for binding to the BET family (BRD2, BRD3, BRD4 and BRDT) was assessed using protein truncates spanning both bromodomain 1 (BD1) and bromodomain 2 (BD2). In order to monitor differential binding to either BD1 or BD2, single residue mutations of key tyrosines to alanine were made in the acetyl lysine binding pockets. To validate this approach, a double residue mutant tandem domain protein was produced for each of the BET family members. Utilising a Fluorescence Polarisation approach, binding affinities for each of the single and double mutants for Reference Compound X were determined. […] Final purification was completed by Superdex 200 prep grade size exclusion column. Purified protein was stored at −80° C. in 20 mM HEPES pH 7.5 and 100 mM NaCl.
Protocol for Bromodomain BRD2, 3, 4 and T, BD1+BD2 mutant TR-FRET competition assays:
All assay components were dissolved in an assay buffer composing of 50 mM HEPES pH7.4, 50 mM NaCl, 5% Glycerol, 1 mM DTT and 1 mM CHAPS. […] The solution containing bromodomain and Reference Compound X was added to dose response dilutions of test compound or DMSO vehicle (a maximum of 0.5% DMSO is used in this assay) in Greiner 384 well black low volume microtitre plates and subsequently incubated for 30 minutes at room temperature. An equal volume of 3 nM of anti-6*His Europium chelate was added to all wells, followed by a further 30 minute incubation at room temperature. TR-FRET was detected using a Perkin Elmer Multimode plate reader, by exciting the donor fluorophore at A337 nm and subsequently, after a delay of 50 μsecs, measuring emission of the donor and acceptor fluorophores at A615 nm and λ665 nm, respectively. In order to control these assays, 16 replicates each of uninhibited (DMSO vehicle) and inhibited (10*IC50 concentrations of Example 11 of WO 2011/054846A1) TR-FRET assays were included on every microtitre plate.
cA four parameter curve fit of the following form was then applied: y=a+((b−a)/(1+(10^x/10^c)^d)
Where ‘a’ is the minimum, ‘b’ is the Hill slope, ‘c’ is the pIC50 and ‘d’ is the maximum.

[2] = tested on: BET family (BRD2, BRD3, BRD4 and BRDT) tandem bromodomain proteins, Tyrosine to Alanine mutants; assay: Fluorescence Polarisation binding of Reference Compound X to single and double mutant tandem BET proteins; set-up: species or system Human
Method: The competition of the compounds of formula (I) with Reference Compound X for binding to the BET family (BRD2, BRD3, BRD4 and BRDT) was assessed using protein truncates spanning both bromodomain 1 (BD1) and bromodomain 2 (BD2). In order to monitor differential binding to either BD1 or BD2, single residue mutations of key tyrosines to alanine were made in the acetyl lysine binding pockets. To validate this approach, a double residue mutant tandem domain protein was produced for each of the BET family members. Utilising a Fluorescence Polarisation approach, binding affinities for each of the single and double mutants for Reference Compound X were determined. […] The affinities of the single mutated bromodomain tandem proteins for Reference Compound X were equi-potent with the corresponding non-mutated BET protein. […] Final purification was completed by Superdex 200 prep grade size exclusion column. Purified protein was stored at −80° C. in 20 mM HEPES pH 7.5 and 100 mM NaCl. Protein identity was confirmed by peptide mass fingerprinting and predicted molecular weight confirmed by mass spectrometry.

[3] = TR-FRET competition with Reference Compound X, values exemplary only

Row | Compound | IC50 [1, 3] [nM] | further results
1 | CNC(=O)c1cc(C(=O)NCC2CCOCC2)cc(Cc2ccccc2)n1 [Example 87, 6-Benzyl-N^2-methyl-N^4-((tetrahydro-2H-pyran-4-yl)methyl)pyridine-2,4-dicarboxamide] | 1000 to 10000 | –
2 | CNC(=O)c1cc(C(=O)NCC2CCCO2)cc(Cc2ccccc2)n1 (racemic) [Example 84, (+/−)-6-Benzyl-N^2-methyl-N^4-((tetrahydrofuran-2-yl)methyl)pyridine-2,4-dicarboxamide] | 1000 to 10000 | –
3 | CNC(=O)c1cc(C(=O)NCCCC2OCC(N)CO2)cc(C(OC)c2ccccc2)n1 [Example 161, N^4-(3-((2r,5S)-5-Amino-1,3-dioxan-2-yl)propyl)-6-((R*)-methoxy(phenyl)methyl)-N2-methylpyridine-2,4-dicarboxamide] | – | selectivity for BRD4 BD2 over BRD4 BD1 [1]: 3.2 log units; pIC50 in the BRD4 BD2 assay [1, 3]: 7.6 log10 units; fold selective for BRD4 BD2 over BRD4 BD1 [1]: at least 1000 fold
4 | CNC(=O)c1cc(C(=O)NCC2CCCCO2)cc(Cc2ccccc2)n1 (racemic) [Example 85, (+/−)-6-Benzyl-N^2-methyl-N^4-((tetrahydro-2H-pyran-2-yl)methyl)pyridine-2,4-dicarboxamide] | 1000 to 10000 | –
5 | CNC(=O)c1cc(C(=O)N[C@H]2[C@@H]3COC[C@@H]32)cc(C(CF)c2ccccc2)n1 (mixture of isomers) [Example 164, (+/−)-N^4-((1R,5S,6r)-3-Oxabicyclo[3.1.0]hexan-6-yl)-6-(2-fluoro-1-phenylethyl)-N^2-methylpyridine-2,4-dicarboxamide] | 1000 to 10000 | –
6 | CNC(=O)c1cc(C(=O)NCC[C@H]2CNCCO2)cc(C(C)c2ccccc2)n1 (single isomer, unassigned) [Example 41, N^2-Methyl-N^4-(2-((S)-morpholin-2-yl)ethyl)-6-((S*)-1-phenylethyl)pyridine-2,4-dicarboxamide] | 39.8 | selectivity for BRD4 BD2 over BRD4 BD1 [1]: 3.0 log units; fold selective for BRD4 BD2 over BRD4 BD1 [1]: at least 1000 fold
7 | CNC(=O)c1cc(C(=O)N[C@H]2[C@@H]3COC[C@@H]32)cc(Cc2cccc3c2CCN3)n1 [Example 130, N^4-((1R,5S,6r)-3-Oxabicyclo[3.1.0]hexan-6-yl)-6-(indolin-4-ylmethyl)-N^2-methylpyridine-2,4-dicarboxamide] | 50.1 | –
8 | COc1ccc2c(c1)C(c1ccc(Cl)cc1)=N[C@@H](CC(=O)NCCCCCNC(=O)CCCCCC1(C)/C(=C/C=C/C=C/C3=[N+](CCCCS(=O)(=O)O)c4ccc(S(=O)(=O)O)cc4C3(C)C)N(CCCCS(=O)(=O)[O-])c3ccc(S(=O)(=O)O)cc31)c1nnc(C)n1-2 (stereo partly drawn) [Reference Compound X] | – | reduction in Kd (affinity) of double mutant tandem proteins in comparison to non mutated, wild type tandem BET proteins ([2]; double residue mutant tandem domain protein, each BET family member): > 1000 fold; reduction of the Kd of the interaction between the mutated bromodomain and Reference Compound X ([2]; single mutations of Tyrosine to Alanine): > 1000 fold
9 | CNC(=O)c1cc(C(=O)N[C@H]2[C@@H]3COC[C@@H]32)cc([C@@H](CF)c2ccccc2)n1 (single isomer, unassigned) [Example 165, N^4-((1R,5S,6r)-3-Oxabicyclo[3.1.0]hexan-6-yl)-6-((S*)-2-fluoro-1-phenylethyl)-N^2-methylpyridine-2,4-dicarboxamide] | 1000 to 10000 | –
10 | CNC(=O)c1cc(C(=O)N[C@H]2[C@@H]3COC[C@@H]32)cc([C@H](CF)c2ccccc2)n1 (single isomer, unassigned) [Example 166, N^4-((1R,5S,6r)-3-Oxabicyclo[3.1.0]hexan-6-yl)-6-((R*)-2-fluoro-1-phenylethyl)-N^2-methylpyridine-2,4-dicarboxamide] | 1000 to 10000 | –
